Reference: patent US4791135A (priority 1987, dated 1988)
Converted amounts (≈) assume the structure as drawn. Where two headings read alike, the source gives them in different places. One block for each molecule: values may come before it.

Tests used:
[1] = Stability in 5% NaHCO3/D2O at room temperature, monitored by PMR; assay type: physicochemical
Procedure: (§1) To a 5 mm NMR tube containing 10 mg of sample was added 0.5 mL of 2.5% K2 CO3 /D2 O solution. The initial spectrum of the solution was taken within 5 minutes, and again at intervals thereafter. The extent of hydrolysis was estimated by the following equation:
(§2) % Decomposition=(B/2A+B)×100
(§3) where A=integration of H-10 (5.80 ppm, d, J=10.8 Hz, 1H) and H-12 (5.71 ppm, s, 1H) of artesunate; B=integration of the singlet at 2.42 ppm for the potassium succinate formed. With time, the intensity of potassium succinate (2.42 ppm) signal increases, while that of H-10 and H-12 of artesunate decreases. The stability study of compound 1 in 5% NaHCO3 /D2 O was also carried out by the same procedure.

[2] = tested on: Plasmodium berghei; test: In vivo suppressive blood schizonticidal and curative activity in infected mice, 60 days survival; set-up: species or system Plasmodium berghei (in mice); details: for Number active (A): active = survival time greater than twice control mice (12 to 14 days); for Number of Cures: cured = surviving 60 days
Procedure: The suppressive blood schizonticidal and curative activities of artemisinin, artelinic acid and artesunic acid, were measured in a test where mice were infected with 5.98×10^5 Plasmodium berghei parasitized cells intraperitoneally on day zero. […] The dose levels of compounds given were 640, 160, and 40 mg/kg/day. Blood films were taken on days 6, 13, and 20. Blood schizonticidal activity was determined by monitoring blood films for the appearance of parasites and for extended survival times compared to infected untreated controls. Mice surviving 60 days were considered cured. The infected untreated control mice (negative controls) died on either day 6 or 7. Compounds were considered active when the survival time of the treated mice was greater than twice the control mice, i.e., 12 to 14 days.

[3] = background, cited from earlier work
[4] = physchem; assay type: physicochemical
Procedure: To compare the relative stability of the new agents vs. artesunic acid, stability studies of compound 8d and compound 1 were conducted in 2.5% K2 CO3 /D2 O solution at room temperature and were monitored by PMR. [drawing 8]
as §1, §2, §3

[5] = tested on: malaria; details: background; cited from earlier work
[6] = tested on: cerebral malaria; details: background; cited from earlier work
[7] = tested on: malaria; details: background, reported; cited from earlier work
[8] = tested on: Plasmodium falciparum D-6 (Sierra Leone clone) and W-2 (Indochina clone); test: In vitro antimalarial activity against both clones, summarised in words; assay type: cell-based; details: D-6 and W-2 clones
Procedure: (§4) The former clone is a strain that is resistant to mefloquine and the latter, to chloroquine, pyrimethamine, sulfadoxine, and quinine.
(§5) In vitro assays were conducted using a modification of the semiautomated microdilution technique of Desjardins et al., Antimicrob. Agents Chemoether., 1979, Volume 16, page 710 and Milhous et al., Antimicrob. Agents Chemother., 1985, Volume 27, page 525. Two P. falciparum malaria parasite clones, designated as Indochina (W-2) and Sierra Leone (D-6), were utilized in susceptibility testing. They were derived by direct visualization and micromanipulation from patient isolates obtained by the Centers for Disease Control, Atlanta, GA in 1980 and 1982, respectively. The patients had acquired infections either in Vietnam or Sierra Leone. The Indochina clone is resistant to the antimalarials chloroquine, sulfadoxine, pyrimethamine, and quinine, whereas the Sierra Leone, is resistant to mefloquine but susceptible to chloroquine, quinine, sulfadoxine, and pyrimethamine. Test compounds were initially dissolved in DMSO and 70% ethanol and diluted in RPMI 1640 culture medium with 10% human plasma to 400 fold. Drugs were subsequently further diluted using the Cetus Pro/Pette (Perkin-Elmer Corp., Norwalk, CT) over a range of 1.56-100×10^-9 molar. Parasite inocula (at 0.5% parasitemia and a 1% hematocrit) were incubated for 24 hours and added to equimolar concentrations of each test compound prior to the addition of ^3 H-hypoxanthine. After a further incubation of 18 hours, particulate matter was harvested from each microtiter well using an automated cell harvester (Skatron, Inc., Sterling, VA). Uptake of ^3 H-hypoxanthine was measured using a scintillation spectrophotometer (Model LS3801, Beckman Instruments, Irvine, CA). Concentration-response data were analyzed by nonlinear regression and the IC50 's (50% inhibitory concentrations) for each compound were calculated.

[9] = tested on: P. falciparum Sierra Leone (D-6) clone; test: In vitro antimalarial susceptibility, 3H-hypoxanthine uptake, Sierra Leone (D-6) clone; assay type: cell-based, Plasmodium falciparum; details: for IC50: Plasmodium falciparum
Procedure: as §4
as §5, with “CA).” for “CA). Concentration-response data were analyzed by nonlinear regression and the IC50 's (50% inhibitory concentrations) for each compound were calculated.”

[10] = tested on: P. falciparum Indochina (W-2) clone; test: In vitro antimalarial susceptibility, 3H-hypoxanthine uptake, Indochina (W-2) clone; assay type: cell-based, Plasmodium falciparum; details: for IC50: Plasmodium falciparum
Procedure: as §4
as §5, with “CA).” for “CA). Concentration-response data were analyzed by nonlinear regression and the IC50 's (50% inhibitory concentrations) for each compound were calculated.”

[11] = 40 mg/kg/day SC x 3 days, 5% NaHCO3
[12] = 160 mg/kg/day SC x 3 days, 5% NaHCO3
[13] = 640 mg/kg/day SC x 3 days, 5% NaHCO3
[14] = 40 mg/kg/day SC x 3 days, peanut oil

SMILES: C[C@H]1[C@H](OC(=O)CCC(=O)O)O[C@@H]2O[C@@]3(C)CC[C@H]4[C@H](C)CC[C@@H]1[C@@]24OO3 [Compound 1, artesunic acid]
half-life of hydrolysis (estimated) ([1]; 5% NaHCO3): about 4.5 days | rate of hydrolysis compared with 2.5% K2CO3/D2O ([1]; 5% NaHCO3/D2O vs 2.5% K2CO3/D2O): slower | degraded at 4 h ([1]; 5% NaHCO3/D2O, room temperature, 4 hours, read-out: % Hydrolysis): < 5% | degraded at 48 h ([1]; 5% NaHCO3/D2O, room temperature, 2 days, read-out: % Hydrolysis): 22% | degraded at 72 h ([1]; 5% NaHCO3/D2O, room temperature, 3 days, read-out: % Hydrolysis): 33% | degraded at 96 h ([1]; 5% NaHCO3/D2O, room temperature, 4 days, read-out: % Hydrolysis): 45% | degraded at 192 h ([1]; 5% NaHCO3/D2O, room temperature, 8 days, read-out: % Hydrolysis): 75% | degraded at 216 h ([1]; 5% NaHCO3/D2O, room temperature, 9 days, read-out: % Hydrolysis): 82% | Number active (A) [2, 11]: 2/5 | Number of Cures [2, 11]: 0/5 | Number active (A) [2, 12]: 3/5 | Number of Cures [2, 12]: 0/5 | Number of Cures [2, 13]: 5/5 | water solubility ([3]; listed as compound 1): water-soluble | half-life of hydrolysis (estimated) ([4]; 2.5% K2CO3 solution): < 1 days | degraded at 1.5 h ([4]; 2.5% k2co3/d2o): 20% | degraded at 24 h ([4]; 2.5% k2co3/d2o): 60% | degraded at 48 h ([4]; 2.5% k2co3/d2o): 75% | degraded at 72 h ([4]; 2.5% k2co3/d2o): 91% | degraded at 96 h ([4]; 2.5% k2co3/d2o): 98%

SMILES: C[C@@H]1CC[C@H]2[C@@H](C)C(O)O[C@@H]3O[C@@]4(C)CC[C@@H]1[C@]32OO4 (stereo partly shown) [Compound 2, Dihydroartemisinin]
cross-resistance to chloroquine [5]: Neither artemisinin nor dihydroartemisinin exhibit cross-resistance to chloroquine | efficacy against cerebral malaria in man [6]: proven efficacious against cerebral malaria in man | therapeutic activity compared with its parent compound artemisinin [7]: more therapeutically active than its parent compound | cross-resistance to mefloquine, chloroquine, pyrimethamine, sulfadoxine, quinine [8]: not cross-resistant

SMILES: C[C@@H]1CC[C@H]2[C@@H](C)C(=O)O[C@@H]3O[C@@]4(C)CC[C@@H]1[C@]32OO4 [Compound 3, Artemisinin]
cross-resistance to chloroquine [5]: Neither artemisinin nor dihydroartemisinin exhibit cross-resistance to chloroquine | efficacy against cerebral malaria in man [6]: proven efficacious against cerebral malaria in man | IC50 [9]: 2.93 ng/mL (≈ 10.4 nM) | Blood films positive ([2]; 40 mg/kg, peanut oil, SC): 3 of 5 | Number active (A) [2, 14]: 3/5 | Number of Cures [2, 14]: 2/5 | Blood films ([2]; 160 mg/kg, peanut oil, SC): negative | Number of Cures ([2]; 160 mg/kg/day SC x 3 days, peanut oil): 5/5 | Blood films ([2]; 640 mg/kg, peanut oil, SC): negative | Number of Cures ([2]; 640 mg/kg/day SC x 3 days, peanut oil): 5/5 | IC50 [10]: 0.66 ng/mL (≈ 2.34 nM) | cross-resistance to mefloquine, chloroquine, pyrimethamine, sulfadoxine, quinine [8]: not cross-resistant

SMILES: CC1CCC2C(C)C(OCCCC(=O)O)OC3OC4(C)CCC1C32OO4 (stereo not shown) [Compound 7c, Potassium 4-(10-Dihydroartemisininoxy)butyrate]
In vitro antimalarial activity IC50, Sierra Leone (D-6) [9]: 75.52 ng/mL | IC50 [10]: 10.5 ng/mL

SMILES: CC1CCC2C(C)C(OCCC(=O)O)OC3OC4(C)CCC1C32OO4 (stereo not shown) [Compound 8b, 3-(10-Dihydroartemisininoxy)propionic Acid]
In vitro antimalarial activity IC50, Sierra Leone (D-6) [9]: 51.74 ng/mL | IC50 [10]: 35.6 ng/mL (≈ 100 nM)

SMILES: CC1CCC2C(C)C(OCc3ccc(C(=O)O)cc3)OC3OC4(C)CCC1C32OO4 (stereo not shown) [Compound 8d, Para-(10-Dihydroartemisininoxy)methylbenzoic Acid]
In vitro antimalarial activity IC50, Sierra Leone (D-6) [9]: 4.07 ng/mL | Number of Cures [2, 11]: 5/5 | Number of Cures [2, 12]: 5/5 | Number of Cures [2, 13]: 5/5 | detectable change ([4]; 2.5% K2CO3/D2O, room temperature, after 35 days): no detectable change | degraded at 1.5 h ([4]; 2.5% k2co3/d2o): 0% | degraded at 24 h ([4]; 2.5% k2co3/d2o): 0% | degraded at 48 h ([4]; 2.5% k2co3/d2o): 0% | degraded at 72 h ([4]; 2.5% k2co3/d2o): 0% | degraded at 96 h ([4]; 2.5% k2co3/d2o): 0% | degraded at 1608 h ([4]; 2.5% k2co3/d2o): < 3% | In vitro antimalarial activity IC50, Indochina Clone (W-2) [10]: 1.38 ng/mL

SMILES: C[C@H]1[C@H](OC(=O)CCC(=O)O)O[C@@H]2O[C@@]3(C)CC[C@H]4[C@H](C)CC[C@@H]1[C@@]24OO3 [Sodium artesunate]
water solubility [3]: water soluble

The next lines start with the values.

IC50 [9]: 0.6 ng/mL (≈ 1.62 nM) | IC50 [10]: 0.26 ng/mL (≈ 0.702 nM)
SMILES: CCOC(=O)COC1OC2OC3(C)CCC4C(C)CCC(C1C)C24OO3 (stereo not shown) [Compound 5a, Ethyl 2-(10-Dihydroartemisininoxy)acetate]

IC50 [9]: 1.84 ng/mL (≈ 4.97 nM) | IC50 [10]: 0.64 ng/mL (≈ 1.73 nM)
SMILES: COC(=O)CCOC1OC2OC3(C)CCC4C(C)CCC(C1C)C24OO3 (stereo not shown) [Compound 5b, Methyl 3-(10-Dihydroartemisininoxy)propionate]

IC50 [9]: 3.06 ng/mL (≈ 7.96 nM) | IC50 [10]: 0.95 ng/mL (≈ 2.47 nM)
SMILES: COC(=O)CCCOC1OC2OC3(C)CCC4C(C)CCC(C1C)C24OO3 (stereo not shown) [Compound 5c, Methyl 4-(10-Dihydroartemisininoxy)butyrate]

IC50 [9]: 0.77 ng/mL (≈ 1.78 nM) | IC50 [10]: 0.37 ng/mL (≈ 0.855 nM)
SMILES: COC(=O)c1ccc(COC2OC3OC4(C)CCC5C(C)CCC(C2C)C35OO4)cc1 (stereo not shown) [Compound 5d, Methyl p-(10-Dihydroartemisininoxy)methylbenzoate]

In vitro antimalarial activity IC50, Sierra Leone (D-6) [9]: 53.79 ng/mL | IC50 [10]: 26.2 ng/mL
SMILES: CC1CCC2C(C)C(OCC(=O)O)OC3OC4(C)CCC1C32OO4 (stereo not shown) [Compound 7a, Potassium 2-(10-Dihydroartemisininoxy)acetate]

In vitro antimalarial activity IC50, Sierra Leone (D-6) [9]: 85.02 ng/mL | In vitro antimalarial activity IC50, Indochina Clone (W-2) [10]: 23.28 ng/mL
SMILES: CC1CCC2C(C)C(OCCC(=O)O)OC3OC4(C)CCC1C32OO4 (stereo not shown) [Compound 7b, Potassium 3-(10-Dihydroartemisininoxy)propionate]

In vitro antimalarial activity IC50, Sierra Leone (D-6) [9]: 17.90 ng/mL | In vitro antimalarial activity IC50, Indochina Clone (W-2) [10]: 8.04 ng/mL
SMILES: CC1CCC2C(C)C(OCCCC(=O)O)OC3OC4(C)CCC1C32OO4 (stereo not shown) [Compound 8c, 4-(10-Dihydroartemisininoxy)butyric Acid]
